This experiment has as its target T1, human PDE10A full length (Homo sapiens, UniProt Q9Y233).
T1 construct: purchased Enzo Life Science, Lausen, Switzerland SE-534
Kind of experiment: human PDE10A full length Scintillation Proximity Assay (SPA). As to conditions: 50 nM cGMP + 50 nM [3H]-cGMP, 20 min at room temperature, read-out: PDE10A inhibition IC50. Format: biochemical. As to the method: The following test was carried out in order to determine the activity of the compounds of the present invention. PDE10A activity of the compounds of the present invention was determined using a Scintillation Proximity Assay (SPA)-based method similar to the one previously described (Fawcett, L. et al., Proc. Natl. Acad. Sci. USA 2000, 97(7), 3702-3707).
The human PDE10A full length assay was performed in 96-well micro titer plates. The reaction mixture of 50 μl contained 20 mM HEPES pH=7.5/10 mM MgCl2/0.05 mg/ml BSA (Sigma cat. # A-7906), 50 nM cGMP (Sigma, cat. # G6129) and 50 nM [^3H]-cGMP (GE Healthcare, cat. # TRK392 S.A. 13.2 Ci/mmol), 3.75 ng/well PDE10A enzyme (Enzo Life Science, Lausen, Switzerland cat # SE-534) with or without a specific test compound. A range of concentrations of the potential inhibitor was used to generate data for calculating the concentration of inhibitor resulting in 50% of the effect (e.g. IC50, the concentration of the competitor inhibiting PDE10A activity by 50%). Non-specific activity was tested without the enzyme. The reaction was initiated by the addition of the substrate solution (cGMP and [^3H]-cGMP) and allowed to progress for 20 minutes at room temperature. […] Afterwards, radioactive counts were measured on a Perkin Elmer TopCount Scintillation plate reader.

This passage reports IC50 results from US20160031878A1, “RADIOLABELED COMPOUNDS” (Hoffmann-La Roche Inc., priority 2013, published 2016).

T1 sequence (Q9Y233 1-779 isoform Q9Y233-1): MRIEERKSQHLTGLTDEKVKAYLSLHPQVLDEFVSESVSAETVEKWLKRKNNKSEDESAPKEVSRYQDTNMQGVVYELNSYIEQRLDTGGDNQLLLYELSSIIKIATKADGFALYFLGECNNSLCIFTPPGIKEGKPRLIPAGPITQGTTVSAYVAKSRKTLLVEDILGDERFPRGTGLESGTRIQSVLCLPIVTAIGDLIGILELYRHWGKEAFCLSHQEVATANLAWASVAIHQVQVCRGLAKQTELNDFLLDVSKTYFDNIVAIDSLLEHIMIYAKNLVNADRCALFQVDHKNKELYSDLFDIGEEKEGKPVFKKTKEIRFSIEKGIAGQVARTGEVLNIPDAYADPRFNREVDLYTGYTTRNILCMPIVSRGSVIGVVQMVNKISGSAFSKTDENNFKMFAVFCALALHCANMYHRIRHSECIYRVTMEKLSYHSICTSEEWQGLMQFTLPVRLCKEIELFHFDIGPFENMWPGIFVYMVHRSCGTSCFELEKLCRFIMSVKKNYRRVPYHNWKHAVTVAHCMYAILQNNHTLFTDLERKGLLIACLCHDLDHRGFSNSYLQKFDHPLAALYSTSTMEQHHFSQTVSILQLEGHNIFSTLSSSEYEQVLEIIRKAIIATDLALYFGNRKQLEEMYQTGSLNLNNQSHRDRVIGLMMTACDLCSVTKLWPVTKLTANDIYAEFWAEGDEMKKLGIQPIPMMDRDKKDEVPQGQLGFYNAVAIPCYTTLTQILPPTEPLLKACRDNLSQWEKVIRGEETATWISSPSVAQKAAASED

For `CN(CCF)C(=O)c1cnn(C)c1C(=O)Nc1ccn2nc(-c3ccccc3)nc2c1` [Compound 4, 2-methyl-2H-pyrazole-3,4-dicarboxylic acid 4-[(2-fluoro-ethyl)-methyl-amide]3-[(2-phenyl-[1,2,4]triazolo[1,5-a]pyridin-7-yl)-amide]], the concentration for half-maximal inhibition (IC50) was 0.94 nM.

On to `COc1cccc(-c2nc3cc(NC(=O)c4c(C(=O)N5CCOCC5)cnn4C)ccn3n2)c1` [Compound 21, 2-Methyl-4-(morpholine-4-carbonyl)-2H-pyrazole-3-carboxylic acid [2-(3-methoxy-phenyl)-[1,2,4]triazolo[1,5-a]pyridin-7-yl]-amide], for which the IC50 came to 5.1 nM.
